ChEMBL document CHEMBL2203174, “SAR Development of Lysine-Based Irreversible Inhibitors of Transglutaminase 2 for Huntington's Disease” (ACS Med Chem Lett, 2012)
Values after ≈ are worked out from the molar mass of the structure shown. Peptide text beside a SMILES is read from it. * marks the point of attachment. Cbz = O=C(OCc1ccccc1)*; Acryloyl = C=CC(=O)*; OtBu = CC(C)(C)O*

Tests used:
[1] = Apparent permeability of the compound across apical to basolateral side in wild type MDCK cells at 10 uM; type: ADME, cell-based, Canis lupus familiaris; conditions: dog
MDR1 = assay: Efflux ratio of permeability in MDCK cells expressing MDR1 at 10 uM; type: ADME, cell-based, Canis lupus familiaris; conditions: dog
[2] = Intrinsic clearance in human liver microsomes at 1 uM by LC-MS/MS analysis; type: ADME, Microsome; conditions: read-out: CLH
[3] = Intrinsic clearance in mouse liver microsomes at 1 uM by LC-MS/MS analysis; type: ADME, Microsome; conditions: read-out: CLH
[4] = Half life in mouse plasma at 1 uM by LC-MS/MS analysis; type: ADME, cell-free
[5] = Half life in human plasma at 1 uM by LC-MS/MS analysis; type: ADME, cell-free
[6] = Ratio of IC50 for mouse transglutaminase 2 to IC50 for human transglutaminase 2
[7] = Kinetic solubility of the compound in PBS at pH 7.4 by LC-UV analysis; type: physicochemical; conditions: read-out: Kinetic_solubility
[8] = biological target: T1, Protein-glutamine gamma-glutamyltransferase K (Homo sapiens, UniProt P22735); assay: Inhibition of transglutaminase 1
T1 sequence (P22735 whole entry): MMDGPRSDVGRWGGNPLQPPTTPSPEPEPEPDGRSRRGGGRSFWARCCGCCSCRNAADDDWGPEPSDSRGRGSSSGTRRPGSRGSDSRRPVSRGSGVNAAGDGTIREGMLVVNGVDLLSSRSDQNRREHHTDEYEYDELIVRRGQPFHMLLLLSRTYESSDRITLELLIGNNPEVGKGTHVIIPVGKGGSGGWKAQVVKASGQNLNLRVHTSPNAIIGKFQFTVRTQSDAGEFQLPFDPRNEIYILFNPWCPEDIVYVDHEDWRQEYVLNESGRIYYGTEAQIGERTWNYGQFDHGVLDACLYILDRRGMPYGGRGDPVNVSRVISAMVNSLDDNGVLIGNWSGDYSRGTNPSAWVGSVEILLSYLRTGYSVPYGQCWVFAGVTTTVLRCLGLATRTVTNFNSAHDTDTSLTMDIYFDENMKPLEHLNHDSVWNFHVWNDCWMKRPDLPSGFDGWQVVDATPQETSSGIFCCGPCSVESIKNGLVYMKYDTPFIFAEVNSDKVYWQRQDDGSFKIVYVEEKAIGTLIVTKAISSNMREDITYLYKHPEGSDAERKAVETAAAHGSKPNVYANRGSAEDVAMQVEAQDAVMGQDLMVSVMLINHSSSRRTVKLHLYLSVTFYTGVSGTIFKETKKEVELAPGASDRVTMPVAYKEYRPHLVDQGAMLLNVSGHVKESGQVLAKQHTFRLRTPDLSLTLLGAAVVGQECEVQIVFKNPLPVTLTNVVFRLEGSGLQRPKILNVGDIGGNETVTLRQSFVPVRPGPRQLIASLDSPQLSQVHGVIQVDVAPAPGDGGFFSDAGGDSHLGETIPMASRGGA

[9] = Half life in mouse liver microsomes; type: ADME, Microsome
[10] = Apparent permeability of the compound across basolateral to apical side in human Caco2 cells; type: ADME, cell-based; conditions: Caco-2
[11] = Apparent permeability of the compound across apical to basolateral side in human Caco2 cells; type: ADME, cell-based; conditions: Caco-2
[12] = Aqueous solubility of the compound; type: physicochemical; conditions: buffer
[13] = biological target: T2, Protein-glutamine gamma-glutamyltransferase 2 (Mus musculus, UniProt P21981); assay: Inhibition of mouse transglutaminase 2
T2 sequence (P21981 whole entry): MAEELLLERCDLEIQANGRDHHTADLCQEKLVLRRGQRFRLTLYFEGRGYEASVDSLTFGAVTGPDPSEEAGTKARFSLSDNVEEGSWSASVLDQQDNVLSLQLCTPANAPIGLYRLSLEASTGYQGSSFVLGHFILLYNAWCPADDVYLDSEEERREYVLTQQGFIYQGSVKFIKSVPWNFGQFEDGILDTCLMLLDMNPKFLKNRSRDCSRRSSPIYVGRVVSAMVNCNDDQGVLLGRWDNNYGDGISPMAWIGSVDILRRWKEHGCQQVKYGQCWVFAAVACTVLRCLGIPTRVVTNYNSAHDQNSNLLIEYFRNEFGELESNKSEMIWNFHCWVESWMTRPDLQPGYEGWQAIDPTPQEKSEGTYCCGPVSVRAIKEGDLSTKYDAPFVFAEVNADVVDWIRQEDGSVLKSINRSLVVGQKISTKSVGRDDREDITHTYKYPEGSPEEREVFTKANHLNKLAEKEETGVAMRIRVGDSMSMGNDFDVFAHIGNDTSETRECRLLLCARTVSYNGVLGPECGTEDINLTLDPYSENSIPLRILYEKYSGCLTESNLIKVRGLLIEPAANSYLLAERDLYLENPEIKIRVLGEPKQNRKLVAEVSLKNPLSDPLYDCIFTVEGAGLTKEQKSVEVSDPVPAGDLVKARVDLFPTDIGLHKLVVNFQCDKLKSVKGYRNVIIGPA

| Compound | Papp A→B at 10 µM [1] [×10⁻⁶ cm/s] | efflux ratio at 10 µM (MDR1) | microsomal CLint at 1 µM [2] [µL/min/mg] | microsomal CLint at 1 µM [3] [µL/min/mg] | half-life at 1 µM [4] [h] | half-life at 1 µM [5] [h] | Ratio IC50 [6] | solubility kinetic [7] [µg/mL] | IC50 [8] [µM] | half-life [9] [min] | Papp B→A [10] [×10⁻⁶ cm/s] | Papp A→B [11] [×10⁻⁶ cm/s] | solubility [12] [µg/mL] | IC50 [13] [µM] |
| --- | --- | --- | --- | --- | --- | --- | --- | --- | --- | --- | --- | --- | --- | --- |
| C=CC(=O)NCCCC[C@H](NC(=O)OCc1ccccc1)C(=O)N1CCN(c2ccccc2Cl)CC1 | 30.3 | 7.1 | > 1390 | > 1390 | > 8 | > 8 | 2 | 60 (≈ 117 µM) | 12.9 |  |  |  |  |  |
| C=CC(=O)NCCCC[C@H](NC(=O)OCc1ccccc1)C(=O)NCC(=O)OC(C)(C)C (Cbz-Lys(Acryloyl)-Gly-OtBu) |  |  |  |  |  |  |  |  | > 80 | 7 | 25 | 7.5 | 1490 (≈ 3330 µM) | 6.2 |
| C=CC(=O)NCCCC[C@H](NC(=O)Cc1ccccc1)C(=O)N1CCN(c2cccc(C)n2)CC1 | 14.2 | 118 | > 1390 |  | > 24 | > 24 |  | 870 (≈ 1820 µM) | 15 |  |  |  |  |  |
